From patent US20260297081A1, “COMPOUNDS AND METHODS OF TREATING CANCERS” (Cullgen Inc., priority 2023, published 2026)

What was measured:
Type in all cases: cell-based
[1] = system: Calu-1 cells; test: Anti-proliferation (viability) of NSCLC Calu-1 cells, 3 days (Table 7, FIG. 2B); settings: Homo sapiens, 72 h; Calu-1 cells, 3 days, 10-point serial dilution; read-out: GI IC50 in Calu-1
Description: To evaluate anti-proliferation activities of heterobifunctional compounds, NSCLC Calu-1 or ER+ breast cancer T47D cells were treated with selected heterobifunctional compounds following a 10-point serial dilution for 3 or 6 days, respectively.
To verify that heterobifunctional compound-mediated degradation is dependent on the binding to CDK4-cyclin D complex, a negative control compound, CPD-143, which is derived from active heterobifunctional compound CPD-10 was designed. CPD-143 bears the same DDB1 ligand and linker as CPD-10 but with a modified warhead to impair the binding of the control compound to CDK4.

[2] = system: MCF7 cells; test: Anti-proliferation (viability) of MCF7 cells (Table 7, FIG. 2B); settings: Homo sapiens, MCF7, MCF7 cells, 3-6 days, 10-point serial dilution; read-out: GI IC50 in MCF-7
[3] = biological target: CDK4 (Homo sapiens, UniProt P11802+Q16531); test: CDK4 percentage degradation in Calu-1 cells (Table 6); parameters: Cells that express cyclin D1-3 and CDK4/6 proteins were treated with heterobifunctional compounds; endogenous in cells; host or cells: Calu-1; settings: 16 hours
Chain of CDK4 (P11802 2-303 limits assumed): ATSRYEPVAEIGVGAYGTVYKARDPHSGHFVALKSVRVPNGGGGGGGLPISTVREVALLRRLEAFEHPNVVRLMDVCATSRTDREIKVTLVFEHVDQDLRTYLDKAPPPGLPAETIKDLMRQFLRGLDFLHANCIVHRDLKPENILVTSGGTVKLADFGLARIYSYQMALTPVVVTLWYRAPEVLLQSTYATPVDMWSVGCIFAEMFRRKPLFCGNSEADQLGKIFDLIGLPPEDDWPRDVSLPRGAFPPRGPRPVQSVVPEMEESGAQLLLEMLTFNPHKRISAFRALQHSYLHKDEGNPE
Chain of CDK4 (P24385 whole entry partner): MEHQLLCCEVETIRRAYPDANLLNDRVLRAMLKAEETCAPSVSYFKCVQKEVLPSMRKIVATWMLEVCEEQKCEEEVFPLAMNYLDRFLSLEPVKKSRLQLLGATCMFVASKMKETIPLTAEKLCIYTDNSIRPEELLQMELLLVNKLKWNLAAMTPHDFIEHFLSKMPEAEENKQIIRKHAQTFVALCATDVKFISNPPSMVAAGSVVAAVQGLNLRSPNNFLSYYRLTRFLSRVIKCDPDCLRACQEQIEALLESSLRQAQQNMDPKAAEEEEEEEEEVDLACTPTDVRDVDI
Chain of CDK4 (Q16531 2-1140 limits assumed): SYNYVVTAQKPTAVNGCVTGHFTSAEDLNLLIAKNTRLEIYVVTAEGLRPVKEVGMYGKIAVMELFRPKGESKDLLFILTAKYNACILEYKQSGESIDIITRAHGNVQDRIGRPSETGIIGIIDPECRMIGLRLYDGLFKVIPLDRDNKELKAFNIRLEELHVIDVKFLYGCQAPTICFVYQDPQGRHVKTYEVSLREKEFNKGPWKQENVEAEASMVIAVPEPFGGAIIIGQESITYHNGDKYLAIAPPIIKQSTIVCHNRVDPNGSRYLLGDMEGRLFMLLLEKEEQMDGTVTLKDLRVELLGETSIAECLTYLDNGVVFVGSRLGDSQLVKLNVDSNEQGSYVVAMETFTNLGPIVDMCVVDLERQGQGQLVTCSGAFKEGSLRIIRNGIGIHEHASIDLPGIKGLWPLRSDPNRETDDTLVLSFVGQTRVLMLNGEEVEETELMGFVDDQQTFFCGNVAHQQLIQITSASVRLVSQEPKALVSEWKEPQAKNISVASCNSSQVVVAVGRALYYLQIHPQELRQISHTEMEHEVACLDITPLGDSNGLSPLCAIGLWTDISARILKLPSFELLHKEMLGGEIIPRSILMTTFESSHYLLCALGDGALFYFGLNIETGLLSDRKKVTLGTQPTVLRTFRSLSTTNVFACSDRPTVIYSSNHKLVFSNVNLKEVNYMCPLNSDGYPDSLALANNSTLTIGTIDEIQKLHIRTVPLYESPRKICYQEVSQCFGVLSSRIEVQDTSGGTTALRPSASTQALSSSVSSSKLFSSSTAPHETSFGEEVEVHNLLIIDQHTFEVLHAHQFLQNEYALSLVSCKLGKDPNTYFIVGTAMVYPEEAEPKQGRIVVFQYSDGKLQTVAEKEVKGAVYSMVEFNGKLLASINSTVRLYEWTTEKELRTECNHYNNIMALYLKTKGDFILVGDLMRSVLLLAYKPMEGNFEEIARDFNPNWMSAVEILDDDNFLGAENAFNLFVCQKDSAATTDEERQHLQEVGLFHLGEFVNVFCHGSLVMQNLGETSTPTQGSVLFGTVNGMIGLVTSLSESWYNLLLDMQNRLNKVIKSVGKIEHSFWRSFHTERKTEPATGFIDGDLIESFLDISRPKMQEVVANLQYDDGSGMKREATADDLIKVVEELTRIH
How it was run: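 Calu-1 cells exposed to heterobifunctional compounds at 40 nM or 200 nM for 16 h. Cyclin D1 and CDK4 levels measured by Western blot of RIPA lysates (BCA-normalised loading), bands quantified by densitometry and expressed as percentage degradation.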

Compound	IC50 [1]	IC50 [2]	inhibition at 0.04 µM ([3]; 40 nM)	inhibition at 0.2 µM ([3]; 200 nM)
[2H]C([2H])([2H])Nc1ccc(C(=O)Nc2cn(C)c(C3CC3)n2)c(NC[C@H]2CC[C@H](NC(=O)CN3CCN(c4ccc(Nc5ncc6c(C)c(C(C)=O)c(=O)n(C7CCCC7)c6n5)nc4)CC3)CC2)n1 [CPD-276, 2-(((trans-4-(2-(4-(6-((6-acetyl-8-cyclopentyl-5-methyl-7-oxo-7,8-dihydropyrido[2,3-d]pyrimidin-2-yl)amino)pyridin-3-yl)piperazin-1-yl)acetamido)cyclohexyl)methyl)amino)-N-(2-cyclopropyl-1-methyl-1H-imidazol-4-yl)-6-((methyl-d3)amino)nicotinamide]	≥ 50 nM	> 100 nM		
[2H]C([2H])([2H])Nc1ccc(C(=O)Nc2ccc(N(C)C)nn2)c(N[C@H]2CC[C@H](C(=O)N3CCN(Cc4ccc(Nc5ncc6c(C)c(C(C)=O)c(=O)n(C7CCCC7)c6n5)nc4)CC3)CC2)n1 [CPD-495, 2-((4-(4-((6-((6-acetyl-8-cyclopentyl-5-methyl-7-oxo-7,8-dihydropyrido[2,3-d]pyrimidin-2-yl)amino)pyridin-3-yl)methyl)piperazine-1-carbonyl)cyclohexyl)amino)-N-(6-(dimethylamino)pyridazin-3-yl)-6-((methyl-d3)amino)nicotinamide]	≥ 50 nM			
CC(=O)c1c(C)c2cnc(Nc3ccc(N4CCN(CC(=O)NC5CC6(C5)CC(Nc5nc(NC(C)C)ccc5C(=O)Nc5cc(C)n(C(F)(F)F)n5)C6)CC4)cn3)nc2n(C2CCCC2)c1=O (stereo not shown) [CPD-514, 2-((6-(2-(4-(6-((6-acetyl-8-cyclopentyl-5-methyl-7-oxo-7,8-dihydropyrido[2,3-d]pyrimidin-2-yl)amino)pyridin-3-yl)piperazin-1-yl)acetamido)spiro[3.3]heptan-2-yl)amino)-6-(isopropylamino)-N-(5-methyl-1-(trifluoromethyl)-1H-pyrazol-3-yl)nicotinamide]	≥ 50 nM			
CC(=O)c1c(C)c2cnc(Nc3ccc(N4CCC(N(C)C(=O)CN5CC(Nc6nc(NC(C)C)ccc6C(=O)Nc6ccc(N(C)C)nn6)C5)CC4)cn3)nc2n(C2CCCC2)c1=O [CPD-517, 2-((1-(2-((1-(6-((6-acetyl-8-cyclopentyl-5-methyl-7-oxo-7,8-dihydropyrido[2,3-d]pyrimidin-2-yl)amino)pyridin-3-yl)piperidin-4-yl)(methyl)amino)-2-oxoethyl)azetidin-3-yl)amino)-N-(6-(dimethylamino)pyridazin-3-yl)-6-(isopropylamino)nicotinamide]	≥ 50 nM			
CC(=O)c1c(C)c2cnc(Nc3ccc(CN4CCN(C5CCN(C(=O)C6CCC(Nc7nc(NC(C)C)ccc7C(=O)Nc7ccc(N(C)C)nn7)C6)C5)CC4)cn3)nc2n(C2CCCC2)c1=O (stereo not shown) [CPD-511, 2-((3-(3-(4-((6-((6-acetyl-8-cyclopentyl-5-methyl-7-oxo-7,8-dihydropyrido[2,3-d]pyrimidin-2-yl)amino)pyridin-3-yl)methyl)piperazin-1-yl)pyrrolidine-1-carbonyl)cyclopentyl)amino)-N-(6-(dimethylamino)pyridazin-3-yl)-6-(isopropylamino)nicotinamide]	≥ 50 nM			
CC(=O)c1c(C)c2cnc(Nc3ccc(CN4CCN(C5CCN(C(=O)C6CC(Nc7nc(NC(C)C)ccc7C(=O)Nc7ccc(N(C)C)nn7)C6)C5)CC4)cn3)nc2n(C2CCCC2)c1=O (stereo not shown) [CPD-510, 2-((3-(3-(4-((6-((6-acetyl-8-cyclopentyl-5-methyl-7-oxo-7,8-dihydropyrido[2,3-d]pyrimidin-2-yl)amino)pyridin-3-yl)methyl)piperazin-1-yl)pyrrolidine-1-carbonyl)cyclobutyl)amino)-N-(6-(dimethylamino)pyridazin-3-yl)-6-(isopropylamino)nicotinamide]	≥ 50 nM			
CNc1ccc(C(=O)Nc2ccn(C)n2)c(NC2CC3(C2)CN(C(=O)CCN2CCN(c4ccc(Nc5ncc6c(C)c(C(C)=O)c(=O)n(C7CCCC7)c6n5)nc4)CC2)C3)n1 [CPD-144, 2-((2-(3-(4-(6-((6-acetyl-8-cyclopentyl-5-methyl-7-oxo-7,8-dihydropyrido[2,3-d]pyrimidin-2-yl)amino)pyridin-3-yl)piperazin-1-y)propanoyl)-2-azaspiro[3.3]heptan-6-yl)amino)-N-(1-methyl-1H-pyrazol-3-yl)-6-(methylamino)nicotinamide]	10 to 50 nM		50 to 80%	> 80%
CC(=O)c1c(C)c2cnc(Nc3ccc(CN4CC5(C4)CN(C(=O)CN4CCC(Nc6nc(NC(C)C)ccc6C(=O)Nc6ccc(N(C)C)nn6)CC4)C5)cn3)nc2n(C2CCCC2)c1=O [CPD-498, 2-((1-(2-(6-((6-((6-acetyl-8-cyclopentyl-5-methyl-7-oxo-7,8-dihydropyrido[2,3-d]pyrimidin-2-yl)amino)pyridin-3-yl)methyl)-2,6-diazaspiro[3.3]heptan-2-yl)-2-oxoethyl)piperidin-4-yl)amino)-N-(6-(dimethylamino)pyridazin-3-yl)-6-(isopropylamino)nicotinamide]	≥ 50 nM			
CC(=O)c1c(C)c2cnc(Nc3ccc(CN4CC5(CN(CC(=O)N6CCC(Nc7nc(NC(C)C)ccc7C(=O)Nc7ccc(N(C)C)nn7)CC6)C5)C4)cn3)nc2n(C2CCCC2)c1=O [CPD-509, 2-((1-(2-(6-((6-((6-acetyl-8-cyclopentyl-5-methyl-7-oxo-7,8-dihydropyrido[2,3-d]pyrimidin-2-yl)amino)pyridin-3-yl)methyl)-2,6-diazaspiro[3.3]heptan-2-yl)acetyl)piperidin-4-yl)amino)-N-(6-(dimethylamino)pyridazin-3-yl)-6-(isopropylamino)nicotinamide]	≥ 50 nM			

Other lines, results leading:

IC50 [1]	IC50 [2]	inhibition at 0.04 µM ([3]; 40 nM)	inhibition at 0.2 µM ([3]; 200 nM)	Compound
≤ 10 nM	< 50 nM			CC(=O)c1c(C)c2cnc(Nc3ccc(N4CCC5(CC4)CC5C(=O)NC4CC5(C4)CC(Nc4nc(NC(C)C)ccc4C(=O)Nc4cn(C)c(C6CC6)n4)C5)cn3)nc2n(C2CCCC2)c1=O (stereo not shown) [CPD-457, 6-(6-((6-acetyl-8-cyclopentyl-5-methyl-7-oxo-7,8-dihydropyrido[2,3-d]pyrimidin-2-yl)amino)pyridin-3-yl)-N-(6-((3-((2-cyclopropyl-1-methyl-1H-imidazol-4-yl)carbamoyl)-6-(isopropylamino)pyridin-2-yl)amino)spiro[3.3]heptan-2-yl)-6-azaspiro[2.5]octane-1-carboxamide]
≤ 10 nM	< 50 nM			[2H]C([2H])([2H])Nc1ccc(C(=O)Nc2ccc(N(C)C)nn2)c(NC2CCN(C(=O)N3CCC(N4CCN(c5ccc(Nc6ncc7c(C)c(C(C)=O)c(=O)n(C8CCCC8)c7n6)nc5)CC4)C3)CC2)n1 (stereo not shown) [CPD-482, 2-((1-(3-(4-(6-((6-acetyl-8-cyclopentyl-5-methyl-7-oxo-7,8-dihydropyrido[2,3-d]pyrimidin-2-yl)amino)pyridin-3-yl)piperazin-1-yl)pyrrolidine-1-carbonyl)piperidin-4-yl)amino)-N-(6-(dimethylamino)pyridazin-3-yl)-6-((methyl-d3)amino)nicotinamide]
≤ 10 nM	< 50 nM			[2H]C([2H])([2H])Nc1ccc(C(=O)Nc2ccc(N(C)C)nn2)c(NC2CCN(C(=O)CN(C)C3CCN(c4ccc(Nc5ncc6c(C)c(C(C)=O)c(=O)n(C7CCCC7)c6n5)nc4)CC3)CC2)n1 [CPD-463, 2-((1-(N-(1-(6-((6-acetyl-8-cyclopentyl-5-methyl-7-oxo-7,8-dihydropyrido[2,3-d]pyrimidin-2-yl)amino)pyridin-3-yl)piperidin-4-yl)-N-methylglycyl)piperidin-4-yl)amino)-N-(6-(dimethylamino)pyridazin-3-yl)-6-((methyl-d3)amino)nicotinamide]
≤ 10 nM	50 to 100 nM			[2H]C([2H])([2H])Nc1ccc(C(=O)Nc2ccc(N(C)C)nn2)c(NC2CCN(C(=O)CN3CCN(Cc4ccc(Nc5ncc6c(C)c(C(C)=O)c(=O)n(C7CCCC7)c6n5)nc4)CC3)CC2)n1 [CPD-474, 2-((1-(2-(4-((6-((6-acetyl-8-cyclopentyl-5-methyl-7-oxo-7,8-dihydropyrido[2,3-d]pyrimidin-2-yl)amino)pyridin-3-yl)methyl)piperazin-1-yl)acetyl)piperidin-4-yl)amino)-N-(6-(dimethylamino)pyridazin-3-yl)-6-((methyl-d3)amino)nicotinamide]
10 to 50 nM				[2H]C([2H])([2H])Nc1ccc(C(=O)Nc2cn(C)c(C3CC3)n2)c(N[C@H]2CC[C@H](C(=O)N3CCC(N4CCN(c5ccc(Nc6ncc7c(C)c(C(C)=O)c(=O)n(C8CCCC8)c7n6)nc5)CC4)C3)CC2)n1 (stereo partly shown) [CPD-480, 2-((4-(3-(4-(6-((6-acetyl-8-cyclopentyl-5-methyl-7-oxo-7,8-dihydropyrido[2,3-d]pyrimidin-2-yl)amino)pyridin-3-yl)piperazin-1-yl)pyrrolidine-1-carbonyl)cyclohexyl)amino)-N-(2-cyclopropyl-1-methyl-1H-imidazol-4-yl)-6-((methyl-d3)amino)nicotinamide]
≤ 10 nM				COc1ccc(NC(=O)c2ccc(NC(C)C)nc2N[C@H]2CC[C@H](C(=O)N3CCC(N4CCN(c5ccc(Nc6ncc7c(C)c(C(C)=O)c(=O)n(C8CCCC8)c7n6)nc5)CC4)C3)CC2)nn1 (stereo partly drawn) [CPD-500, 2-((trans-4-(3-(4-(6-((6-acetyl-8-cyclopentyl-5-methyl-7-oxo-7,8-dihydropyrido[2,3-d]pyrimidin-2-yl)amino)pyridin-3-yl)piperazin-1-yl)pyrrolidine-1-carbonyl)cyclohexyl)amino)-6-(isopropylamino)-N-(6-methoxypyridazin-3-yl)nicotinamide]
